Measured values from US10517919B2, “Selective Nox-1 inhibitor peptides and uses thereof” (UNIVERSITE DE BORDEAUX, priority 2013, dated 2019).

How the values were obtained:
NADPH oxidase [1] = assay: NADPH oxidase activity in keratinocytes treated with peptide A variants; format: cell-based; settings: 10 μM, 24 h post-treatment, normalized to scramble treated cells
Protocol: Keratinocytes were treated with 10 μM of the indicated peptides: scramble control peptide P1 (SEQ ID NO: 57), peptide A with tat sequence (SEQ ID NO: 41) or without the tat sequence (SEQ ID NO:20); shorter peptides P7 (SEQ ID NO: 2) and P8 (SEQ ID NO: 56) (FIG. 8A). The NADPH oxidase activity was measured 24 h post-treatment (RLU/μg of proteins) and was normalized to the scramble treated cells (FIG. 8B).

XPC deficient mice = assay: Premature skin aging in XPC deficient mice (progerin, OXPHOS, proteomics); format: in vivo
Protocol: FIGS. 11A and 11B: show the effect of NOX1 inhibitor peptide A (InhNOX) on progerin expression in skin biopsies of young XPC^+/+ and XPC^−/− mice. One month old mice were treated topically with 3 mg/kg (6 mice per group) Nox1 inhibitor peptide A (InhNOX) or control peptide (vehicle) three times per week for three months. (A) Total protein extracts of skin biopsies were assessed for progerin by Western blot analysis. β-actin was used as a loading control. (B) The protein bands corresponding to progerin was quantified and normalized with β-actin. The average density±SD from six mice in each group is presented as the relative value to the density in young wild type mice.
FIGS. 12A and 12B: show the effects of Nox1 inhibitor peptide A (InhNOX) on protein expression of OXPHOS complexes in skin biopsies of young XPC^+/+ and XPC^−/− mice. One month old mice were treated topically with 3 mg/kg (6 mice per group) Nox1 inhibitor peptide A (InhNOX) or control peptide (vehicle) three times per week for three months. (A) Expression of OXPHOS complexes were assessed by western blot analysis. β-actin was used as a loading control. (B) The bands corresponding to different OXPHOS complexes were quantified and normalized with β-actin. The average density±SD from six mice in each group is presented as the relative value to the density in young wild type mice.
To assess the anti-aging effects of Nox1 inhibitor peptide A (SEQ ID NO: 41) the accelerated aging in XPC deficient mice was first evaluated. To this end, the expression of progerin, a truncated version of lamin A protein involved in progeria syndrome, has been evaluated in 4 months old (young) and 1.5 year old (old) proficient and deficient XPC mice (XPC^+/+ and XPC^−/−, respectively) (FIGS. 9A and 9B).
To investigate the role of NADPH oxidase activity on premature aging in XPC deficient mice, one month old XPC^+/+ and XPC^−/− mice have been treated with NOX1 inhibitor peptide or vehicle three times per week for three months. The progerin expression (FIG. 11), OXPHOS protein expression (FIG. 12) and metabolism profile in murine epidermal cells have been then evaluated. […] To have a general idea on the effects of NOX1 peptide inhibitor on the XPC knockdown-induced metabolism alteration, proteomic approach has been used.

[2] = test system: UVB-induced squamous cell carcinomas (SCC); assay: UVB-induced squamous cell carcinoma induction (photocarcinogenesis); format: in vivo, SKH-1 hairless mice; settings: for tumors with a volume less than 5 mm^3: 3 mg/kg topical, week 29
Protocol: FIGS. 6A, 6B and 6C: show the photoprotective effects of peptide A on UVB-induced squamous cell carcinomas (SCC) induction using SKH-1 hairless mice. Mice were treated topically with 3 mg/kg of peptide A or control peptide, and irradiated with UVB 10 min later three times per week. The number (6A) and the size (6B) of tumors were assessed once a week during 29 weeks (6C). The tumor volume distribution was evaluated at week 29. Clearly there is a considerable reduction in numbers and size of UVB-induced tumors in SKH-1 mice administrated topically with peptide A.
To examine the photoprotective effects of peptide A, the effect of peptide A administration on UVB-induced squamous cell carcinomas (SCC) induction using SKH-1 hairless mice, a well-defined murine model for the study of photocarcinogenesis that develops skin tumors including benign papilloma and malignant SCC. The validity of this model is exemplified by the remarkable similarity between UVB-induced carcinogenesis in these mice and the UV carcinogenesis pathway in human skin. SKH-1 hairless mice have yield extremely valuable data on the dose, time-course and the action spectrum for skin tumorigenesis following chronic UV B irradiation. In this study, peptide A (3 mg/kg) was administrated three times per week and 10 minutes prior to each UV B exposure.

[3] = test system: primary human keratinocytes; assay: ROS level with CM-H2DCF-DA probes in keratinocytes; format: cell-based; settings: 10 or 50 μM, 24 h
Protocol: (§1) FIGS. 2A and 2B: show the relative ROS level as measured in primary human keratinocytes and HT29 (human colon adenocarcinoma cell line) treated with 10 or 50 μM of peptide inhibitor for 24 h using the CM-H2DCF-DA probes. Cells were treated with 10 μM of the peptides A (SEQ ID NO: 41), B (SEQ ID NO: 42), and C (SEQ ID NO: 43), and the ROS level was measured 24 h post-treatment. ROS level was normalized to non-treated cells (NTC) (*P<0.05).
(§2) ROS level in primary human keratinocytes treated with 10 or 50 μM of peptides A, B, and C for 24 h were assayed using the CM-H2DCF-DA probes (FIG. 2A).

[4] = test system: human colon adenocarcinoma HT29 cell line; assay: ROS level in HT29 cells, in which Nox1 is the only active Nox; format: cell-based; settings: 24 h post-treatment
Protocol: as §1, §2

Nox1 = target: T1, Nox1 (Homo sapiens, UniProt Q86UR1); assay: ROS level in shCtrl, shNox1 or shNox2-transduced keratinocytes; format: cell-based; settings: shNox1-transduced keratinocytes, 24 h post-treatment, compared to control peptide C
T1 construct: endogenous in cells; host or cells: keratinocytes transduced with lentiviral shCtrl, shNox1 or shNox2
T1 sequence (Q86UR1 1-476): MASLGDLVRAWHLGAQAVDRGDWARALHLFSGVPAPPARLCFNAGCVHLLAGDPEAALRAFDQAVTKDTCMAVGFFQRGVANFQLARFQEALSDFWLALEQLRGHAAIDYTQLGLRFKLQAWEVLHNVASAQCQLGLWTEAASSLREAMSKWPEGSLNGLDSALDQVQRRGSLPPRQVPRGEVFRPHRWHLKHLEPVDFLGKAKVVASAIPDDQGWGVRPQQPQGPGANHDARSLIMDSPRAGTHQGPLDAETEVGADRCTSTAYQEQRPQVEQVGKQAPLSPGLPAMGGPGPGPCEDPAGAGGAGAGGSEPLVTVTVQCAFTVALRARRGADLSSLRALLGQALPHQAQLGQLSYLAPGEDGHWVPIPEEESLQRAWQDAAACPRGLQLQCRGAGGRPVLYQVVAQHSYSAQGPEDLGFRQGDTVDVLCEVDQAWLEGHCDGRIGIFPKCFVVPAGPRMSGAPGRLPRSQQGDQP
Protocol: (§3) FIGS. 3A, 3B and 3C: show inhibition of endogenous Nox1 and Nox2 protein expression using lentivirus-mediated expression of shRNA against Nox1 and Nox2. Keratinocytes were transduced with different shRNA (shNox1, shNox2 and the control shCtrl). Transduction efficacy was checked by western blotting analysis. […] Transduction efficacy was checked by western blotting analysis. Relative ROS level (3B) and Nox activity (3C) were measured 24 h post-treatment with Nox1 inhibitor peptide A compared to control peptide C. ROS level was normalized to counterpart peptide C-treated cells. NADPH oxidase activity was measured by relative luminescence unit (RLU) per μg of proteins. *P<0.05. […] In FIG. 3C NADPH oxidase activity was measured in shCtrl and shNox1-transduced cells treated with or without Nox1 inhibitor peptide A.
(§4) To examine the specificity of these peptides, the expression of endogenous Nox1 and Nox2 protein was inhibited using lentivirus-mediated expression of shRNA against Nox1 and Nox2. […] Further, NADPH oxidase activity was measured in shCtrl and shNox1-transduced cells treated with or without peptide A (FIG. 3C).

NADPH oxidase [5] = assay: NADPH oxidase activity in shCtrl and shNox1-transduced keratinocytes; format: cell-based, human; settings: peptide A-treated cells versus shNox1-transduced cells and shNox1-transduced cells treated with peptide A
Protocol: as §3, §4

[6] = target: T2, Nox1 activity in mouse skin (Mus musculus, UniProt Q8CJ00); assay: NADPH oxidase activity in mouse skin after topical treatment; format: in vivo, SKH-1 mice; settings: 3 and 12 mg/kg
T2 construct: from tissue; host or cells: skin biopsies of SKH-1 mice
T2 sequence (Q8CJ00 1-444): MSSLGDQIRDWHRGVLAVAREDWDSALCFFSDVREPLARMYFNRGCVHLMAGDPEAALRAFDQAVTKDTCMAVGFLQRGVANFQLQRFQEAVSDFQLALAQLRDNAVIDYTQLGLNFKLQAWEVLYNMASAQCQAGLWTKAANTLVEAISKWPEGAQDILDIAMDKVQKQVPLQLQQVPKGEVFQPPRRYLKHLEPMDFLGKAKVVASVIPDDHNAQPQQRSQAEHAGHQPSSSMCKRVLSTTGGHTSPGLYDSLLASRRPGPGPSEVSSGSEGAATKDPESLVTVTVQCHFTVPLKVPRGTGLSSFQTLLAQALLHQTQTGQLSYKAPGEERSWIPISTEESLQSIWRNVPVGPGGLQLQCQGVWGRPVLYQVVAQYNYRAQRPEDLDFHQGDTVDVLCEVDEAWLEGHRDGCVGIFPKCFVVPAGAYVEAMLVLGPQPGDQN
Protocol: (§5) FIGS. 5A and 5B: show effect of peptide A on Nox1 activity in mouse skin. SKH-1 mice were treated topically with different doses: 0.4, 3 and 12 mg/kg (3 mice per dose) of Nox1 inhibitor peptide A. Skin biopsies were harvested 2 h, 24 h, 48 h and 72 h post-treatment and the NADPH oxidase activity was measured (RLU/μg of proteins). Results was normalized to the non-treated (NT) mice and expressed as % of inhibition of Nox activity. (B) Mice were treated topically with 3 and 12 mg/kg of peptide A (2 mice per dose). 10 min after treatment, mice were exposed to UVB (150 mJ/cm^2). Skin biopsies were harvested 2 h, 24 h. At 46 h after first treatment, mice were treated again with the same concentration of peptide A and exposed to UVB 10 min later. Skin biopsies were then harvested at 2 h, 24 h (i.e. 48 and 72 h after first treatment, respectively). The NADPH oxidase activity was measured (RLU/μg of proteins) and was normalized to the non-treated (NT) and non-irradiated mice.
(§6) To examine the effect of peptide A on Nox1 activity in mouse skin, SKH-1 mice were treated topically with different doses of peptide A (FIG. 5A). […] The effect of peptide A on UVB irradiated mice was then tested (FIG. 5B).

[7] = test system: UVB-induced Nox activation; assay: UVB-induced Nox activation in skin of irradiated mice; format: in vivo, SKH-1 mice; settings: topical 3 and 12 mg/kg, 10 min prior to irradiation (UVB 150 mJ/cm^2)
Protocol: as §5, §6

NADPH oxidase [8] = assay: NADPH oxidase activity in non-tumor bearing skin and UVB-induced tumors after 29 weeks; format: in vivo, SKH-1 mice; settings: compared with vehicle treated mice, after 29 weeks of treatment
Protocol: Mice were sacrificed after 29 weeks of treatment. Non-tumor bearing skin and tumors were harvested from irradiated mice treated with peptide A or the vehicle. NADPH oxidase activity was measured as RLU/μg of proteins in non-tumor bearing skin and UVB-induced tumors. Relative inhibition of Nox activity in non-tumor bearing skin and tumors was evaluated following arbitrary setting the Nox activity in non-tumor bearing skin and tumors taken from vehicle treated-mice to 100%. Results were then expressed as the average percentage of vehicle-treated mice.
The activity of NADPH oxidase was reduced 70% in non-tumor bearing skin and 54% in tumors isolated from mice treated with peptide A compared with vehicle treated mice (FIG. 7).

[9] = 3 mg/kg topical three times per week, 10 minutes prior to each UVB exposure, 29 weeks
[10] = XPC^−/− mice, 3 mg/kg topical three times per week for three months

For “P8: shorter peptide derived from peptide A, sequence not printed (PPTVPTRP; … PEPTIDIC FRAGMENT)”, the “inhibition of NADPH oxidase activity” value (NADPH oxidase [1]) was “efficiently inhibit”.
In the case of “PPTVPTR (HOMO SAPIENS) [P7, shorter peptide derived from peptide A]”, the “inhibition of NADPH oxidase activity” value (NADPH oxidase [1]) is reported as “efficiently inhibit”, the “XPC deficiency-induced premature aging” value (XPC deficient mice; XPC deficient mice) is reported as “blocked” and the “all experiments of Example 8 repeated, compared with peptide A” value (XPC deficient mice; XPC deficient mice) is reported as “the same results have been obtained”.
In the case of “PPTVPTRPS (HOMO SAPIENS) [peptide A without tat]”, the “inhibition of NADPH oxidase activity” value (NADPH oxidase [1]) is reported as “as efficiently as peptide A”.
For “tat-C-L-R-I-T-R-Q-S-R [peptide C, reference compound]”, the “tumors with a volume less than 5 mm^3” value [2] was 8%.
With “tat-I-Q-S-R-C-C-T-V-T (RKKRRQRRRIQSRCCTVT; FUSION PEPTIDE) [peptide B, target SH3-NoxA1]” the ROS level [3] was “significant decrease” and the ROS level [4] was “significant reduction”.
For “tat-P-P-T-V-P-T-R-P-S (RKKRRQRRRPPTVPTRPS; FUSION PEPTIDE) [peptide A, target SH3-NoxA1]”, the ROS level [3] was “significant decrease”, the ROS level [4] was “significant reduction” and the “steady-state levels of ROS in shNox1-transduced cells” value (Nox1) was “no effect”. For the same substance, the NADPH oxidase activity (NADPH oxidase [5]) was “Equally decreased”, the “duration of efficient inhibition of Nox activity in skin” value [6] was “up to 3 days” and the “UVB-induced Nox activation” value [7] was “efficiently blocked”. For the same substance, the “decrease in tumor number” value [2, 9] was 2.3 times, the “decrease in tumor size” value [2, 9] was 2.9 times and the “tumors with a volume less than 5 mm^3” value [2] was 57%. For the same substance, the “reduction of NADPH oxidase activity in non-tumor bearing skin” value (NADPH oxidase [8]) was 70%, the “reduction of NADPH oxidase activity in tumors” value (NADPH oxidase [8]) was 54% and the “XPC deficiency-induced premature aging” value (XPC deficient mice; XPC deficient mice) was “blocked”. The “XPC deficiency-induced metabolic alteration (proteomic approach)” value (XPC deficient mice; XPC deficient mice, three times per week for three months) was “eliminated the effects”, the “expression of OXPHOS complexes I, II and III” value (XPC deficient mice; [10]) was “abrogated the decrease” and the “protein expression of progerin in skin” value (XPC deficient mice; [10]) was “blocked the increase”.
